Read-outs that look alike come from different tables or passages of the source.
Assays:
[1] = test system: human naive CD4T cells; assay: Human Th2 differentiation induction culture with intracellular IFNγ/IL-4 staining and flow cytometry; assay type: cell-based; conditions: for ratio of IFNγ-producing cells (in words) / ratio of IL-4-producing cells (in words) / IFNγ+IL-4− cells (%) / IFNγ−IL-4+ cells (%): Th2 differentiation inducing conditions; for IFNγ+IL-4− cells (%) / IFNγ−IL-4+ cells (%): crude human CD4T cells; for IFNγ+IL-4− cells (%): control 18.1; for IFNγ−IL-4+ cells (%): control 19.4
Procedure: Separation of human naive CD4T cells was performed using an automated magnetic cell sorter (autoMACS Miltenyi Biotec GmbH) by the method described below. Whole blood was drawn by venous paracentesis from six healthy donor volunteers at 24 to 50 years of age. 50 ml of human peripheral blood was diluted two fold with 50 ml of a D-PBS solution (Sigma-Aldrich Inc). Next, 25 ml of the above-described diluted peripheral blood was gradually overlain in four centrifugal tubes containing 12.5 ml of Ficoll-Paque Plus (Amersham Biosciences), and the tubes were centrifuged using a centrifuge at room temperature and 950 G for 30 minutes. After centrifugation, lymphocytes present in the intermediate layer between the Ficoll-Paque and the supernatant were recovered, and suspended in a D-PBS solution containing 3% fetal calf serum (FCS: JRH Biosiences) and 2 mM EDTA (Dojindo Inc) (hereinafter, referred to as MACS buffer); the suspension was centrifuged using a centrifuge at 4° C. and 500 G for 5 minutes to sediment the lymphocytes. The resulting lymphocyte pellet was again suspended in MACS buffer; the suspension was centrifuged at 500 G for 5 minutes to sediment the lymphocytes, and twice washed to yield a lymphocyte pellet. This cell pellet was again suspended in the MACS buffer to obtain a cell density of 1×10^8 cells/ml. To 1×10^7 lymphocytes, 2 μL of an FITC-labeled anti-human CD8 antibody (BD BioScience Pharmingen) and 2 μL of an FITC-labeled anti-human CD45RO antibody (BD BioScience Pharmingen) were added, and they were reacted on ice for 30 minutes to thereby bind each antibody. The MACS buffer was added to the reaction mixture, and the mixture was centrifuged and twice washed at 4° C. Next, 10 μL of anti-FITC microbeads (Miltenyi Biotec GmbH) was added to 1×10^7 lymphocytes coupled with each antibody, and they were reacted with each other on ice for 15 minutes. The MACS buffer was added to the reaction mixture, and the mixture was centrifuged and twice washed at 4° C. The cell pellet obtained was suspended in the MACS buffer to obtain a cell density of 5×10^7/ml, and the suspension was passed through a nylon mesh (Abe Kagaku), after which a CD8- and CD45RO-double-negative fraction was recovered using an automated magnetic cell sorter (AutoMACS Miltenyi Biotec GmbH) to thereby separate human naive CD4T cells, which were supplied for the following experiments.
Under Th2 differentiation conditions, the cells were stimulated on a plate having the anti-CD3 antibody immobilized thereon for 2 days in a differentiation induction medium containing 50 U/ml (final concentration) IL-2 (Immunace, Shionogi & Co., Ltd.), 1 ng/ml (final concentration) IL-4, and 5 μg/ml (final concentration) anti-IFNγ antibody (Pharmingen, and the cells were transferred to a plate without immobilized anti-CD3 antibody, and cultured for 5 days. Furthermore, in the case of Th2 cell differentiation, following the 2 days, 5 days of differentiation induction was performed in two consecutive cycles.
Unless otherwise specified, the final concentrations of CW, LAM/LM, PIM2 and PIM6 were adjusted to 100 μg/ml.
Cells undergoing Th1 differentiation induction (Th1-induced cells) and cells undergoing Th2 differentiation induction (Th2-induced cells) were cultured and stimulated in the presence of Monensin (Sigma) in a medium supplemented with PMA (Phorbol-12-Myristate-13-Acetate, Sigma-Aldrich) and Ionomycin (Calbiochem) for 4 hours. After stimulation, intracellular staining was performed by the method described below, the cells were analyzed using a cell analyzer (FACScalibur), and the degree of Th1 or Th2 differentiation induction was evaluated. […]

[2] = test system: human naive CD4T cells; assay type: cell-based; conditions: for IFNγ+IL-4− cells (%) / ratio of IFNγ-producing cells (in words): Th1 differentiation inducing conditions; for IFNγ+IL-4− cells (%): crude human CD4T cells; for ratio of IFNγ-producing cells (in words): summary of Tables 4 and 5
[3] = 10 μg/ml, Table 4 test, vehicle 51.2
[4] = 30 μg/ml, Table 5 test, vehicle 60.6
[5] = 100 μg/ml, Table 4 test, vehicle 51.2
[6] = 100 μg/ml, Table 5 test, vehicle 60.6

Row | Substance | number of IL-4-producing cells (in words) ([1]; Th2 differentiation conditions, T cells from six healthy human volunteers, 100 μg/ml, FIGS. 8 and 9) | ratio of IFNγ-producing cells (in words) ([1]; 100 μg/ml, FIG. 7B) | ratio of IL-4-producing cells (in words) ([1]; 100 μg/ml, FIG. 7B) | number of IFNγ-producing cells (in words) ([2]; Th1 differentiation conditions, T cells from six healthy human volunteers, 100 μg/ml, FIGS. 8 and 9) | potential to induce Th1 differentiation ([2]; Th1 differentiation induction, 100 μg/ml, FIG. 7B) | ratio of IFNγ-producing cells (in words) ([1]; FIG. 13 and Table 6) | ratio of IL-4-producing cells (in words) ([1]; FIG. 13 and Table 6) | IFNγ+IL-4− cells (%) ([1]; 3 μg/ml) | IFNγ−IL-4+ cells (%) ([1]; 3 μg/ml) | IFNγ+IL-4− cells (%) ([1]; 30 μg/ml) | IFNγ−IL-4+ cells (%) ([1]; 30 μg/ml) | IFNγ+IL-4− cells (%) [2, 3] [%] | IFNγ+IL-4− cells (%) [2, 4] [%] | IFNγ+IL-4− cells (%) [2, 5] [%] | IFNγ+IL-4− cells (%) [2, 6] [%] | ratio of IFNγ-producing cells (in words) [2]
1 | cardiolipin [reference compound] | increased | did not increase | increased | did not increase | did not exhibit the potential to induce Th1 differentiation | – | – | – | – | – | – | – | – | – | – | –
2 | lipoarabinomannan [LAM] | – | – | – | – | – | dose-dependently increased | dose-dependently suppressed | 26.9 | 17.2 | 34.8 | 11.9 | 55.9 | 63.1 | 55.4 | 67.6 | significantly increased
3 | lipomannan [LM] | – | – | – | – | – | dose-dependently increased | dose-dependently suppressed | 29.5 | 14.3 | 38.4 | 8.8 | 56.7 | 70.5 | 67.9 | 69.1 | significantly increased
